Test results taken from ChEMBL document CHEMBL1201862, “PubChem BioAssay data set” (2004).
Blank lines part the entries; values can stand above or below the compound they belong to. The source made the active and inactive calls.

What was measured:
[1] = molecular target: Glucose-6-phosphate 1-dehydrogenase (Homo sapiens, UniProt P11413); test: inhibition of Homo sapiens G6PD, dose series – biochemical, fluorescence, selectivity assay for P. falciparum G6PD inhibitor project, dose response (AID 504792); assay type: functional
Glucose-6-phosphate 1-dehydrogenase, sequence (P11413 whole entry): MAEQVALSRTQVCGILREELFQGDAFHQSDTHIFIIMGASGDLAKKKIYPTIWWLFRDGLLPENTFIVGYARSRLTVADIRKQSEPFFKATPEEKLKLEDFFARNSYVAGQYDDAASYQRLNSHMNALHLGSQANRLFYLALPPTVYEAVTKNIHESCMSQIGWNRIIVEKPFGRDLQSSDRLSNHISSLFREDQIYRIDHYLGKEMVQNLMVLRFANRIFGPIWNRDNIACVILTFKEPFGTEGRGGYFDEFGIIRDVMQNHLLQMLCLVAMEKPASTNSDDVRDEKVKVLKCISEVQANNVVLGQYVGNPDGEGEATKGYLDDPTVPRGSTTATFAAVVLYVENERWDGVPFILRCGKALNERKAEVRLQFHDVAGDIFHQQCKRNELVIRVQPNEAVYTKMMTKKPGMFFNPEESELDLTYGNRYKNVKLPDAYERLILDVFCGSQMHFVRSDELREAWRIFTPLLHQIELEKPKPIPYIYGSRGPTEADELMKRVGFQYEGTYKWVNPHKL

[2] = intracellular Trypanosoma cruzi inhibitors in host cells – cell-based, plate reader, cherry-pick samples, set 3, dose response (AID 651818); assay type: functional;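 also: compounds incubated with infected cells for about four days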
[3] = molecular target: Induced myeloid leukemia cell differentiation protein Mcl-1 (Homo sapiens, UniProt Q07820); assay type: functional
Induced myeloid leukemia cell differentiation protein Mcl-1, sequence (Q07820 whole entry): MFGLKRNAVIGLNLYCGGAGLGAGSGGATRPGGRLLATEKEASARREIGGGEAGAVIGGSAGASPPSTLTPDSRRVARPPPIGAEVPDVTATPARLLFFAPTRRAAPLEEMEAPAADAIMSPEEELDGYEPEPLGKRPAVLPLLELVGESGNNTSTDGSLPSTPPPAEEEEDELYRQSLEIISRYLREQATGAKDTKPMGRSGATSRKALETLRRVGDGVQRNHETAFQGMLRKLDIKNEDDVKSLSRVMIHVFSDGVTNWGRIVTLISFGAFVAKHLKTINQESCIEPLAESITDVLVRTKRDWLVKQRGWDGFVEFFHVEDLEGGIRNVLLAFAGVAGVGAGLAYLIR

[4] = molecular target: DNA dC->dU-editing enzyme APOBEC-3G (Homo sapiens, UniProt Q9HC16); test: Dose Response confirmation of small molecule APOBEC3G DNA Deaminase Inhibitors via a fluorescence-based single-stranded DNA deaminase assay. [Related pubchem assays (depositor defined):AID493012, AID493028]; assay type: functional
DNA dC->dU-editing enzyme APOBEC-3G, sequence (Q9HC16 whole entry): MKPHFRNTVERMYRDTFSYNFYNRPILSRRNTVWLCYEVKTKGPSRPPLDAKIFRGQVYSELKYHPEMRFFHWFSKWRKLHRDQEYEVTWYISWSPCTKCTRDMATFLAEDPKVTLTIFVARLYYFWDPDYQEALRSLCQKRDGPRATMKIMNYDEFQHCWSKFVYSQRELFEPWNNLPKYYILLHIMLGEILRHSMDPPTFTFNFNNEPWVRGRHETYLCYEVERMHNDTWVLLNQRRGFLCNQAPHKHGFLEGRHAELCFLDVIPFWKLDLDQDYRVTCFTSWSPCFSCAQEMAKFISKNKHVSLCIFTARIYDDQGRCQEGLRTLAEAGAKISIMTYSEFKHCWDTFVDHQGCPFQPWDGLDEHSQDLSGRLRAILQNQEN

BJ [5] = test: BJ-TERT-LT-ST fibroblast viability loss – cell-based, RAS-independent, luminescence, dose response (AID 1935); assay type: functional; conditions: Homo sapiens;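 also: BJ fibroblasts immortalized with TERT plus LT and ST oncogenes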
[6] = DRD fibroblast viability loss – cell-based, non-viral oncogenic, luminescence, dose response (AID 1934); assay type: functional; conditions: Homo sapiens
BJ [7] = test: cells; assay type: functional, cell-based; conditions: Homo sapiens
[8] = Luminescence Cell-Based Dose Retest to Confirm Inhibitors of Cancer Stem Cells. [Related pubchem assays (depositor defined):AID2717, AID2721]; assay type: functional; conditions: Homo sapiens
BJ [9] = test: BJ-TERT fibroblast viability loss – cell-based, RAS-independent, luminescence, dose response (AID 1933); assay type: functional; conditions: Homo sapiens
H9c2 = test: cells; assay type: functional, cell-based; conditions: Rattus norvegicus, H9c2, Myocardium;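 also: confirmatory concentration-response retest of ultra-high-throughput screening hits for modulation of myocardial damage; cell death induced by hydrogen peroxide oxidative stress; compound pretreatment for 60 min then peroxide exposure for 2 h; potency is for protecting the cells against peroxide damage rather than for killing them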
Fatty acid synthase = Fatty acid synthase (Homo sapiens, UniProt P49327); test: inhibition of human FAS-TE enzyme activity – biochemical, kinetic fluorescence intensity, dose response (AID 624326); assay type: functional;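 also: rate of fluorescence rise from hydrolysis of a fluorogenic O-methyl fluorescein ester substrate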
Fatty acid synthase, sequence (P49327 whole entry): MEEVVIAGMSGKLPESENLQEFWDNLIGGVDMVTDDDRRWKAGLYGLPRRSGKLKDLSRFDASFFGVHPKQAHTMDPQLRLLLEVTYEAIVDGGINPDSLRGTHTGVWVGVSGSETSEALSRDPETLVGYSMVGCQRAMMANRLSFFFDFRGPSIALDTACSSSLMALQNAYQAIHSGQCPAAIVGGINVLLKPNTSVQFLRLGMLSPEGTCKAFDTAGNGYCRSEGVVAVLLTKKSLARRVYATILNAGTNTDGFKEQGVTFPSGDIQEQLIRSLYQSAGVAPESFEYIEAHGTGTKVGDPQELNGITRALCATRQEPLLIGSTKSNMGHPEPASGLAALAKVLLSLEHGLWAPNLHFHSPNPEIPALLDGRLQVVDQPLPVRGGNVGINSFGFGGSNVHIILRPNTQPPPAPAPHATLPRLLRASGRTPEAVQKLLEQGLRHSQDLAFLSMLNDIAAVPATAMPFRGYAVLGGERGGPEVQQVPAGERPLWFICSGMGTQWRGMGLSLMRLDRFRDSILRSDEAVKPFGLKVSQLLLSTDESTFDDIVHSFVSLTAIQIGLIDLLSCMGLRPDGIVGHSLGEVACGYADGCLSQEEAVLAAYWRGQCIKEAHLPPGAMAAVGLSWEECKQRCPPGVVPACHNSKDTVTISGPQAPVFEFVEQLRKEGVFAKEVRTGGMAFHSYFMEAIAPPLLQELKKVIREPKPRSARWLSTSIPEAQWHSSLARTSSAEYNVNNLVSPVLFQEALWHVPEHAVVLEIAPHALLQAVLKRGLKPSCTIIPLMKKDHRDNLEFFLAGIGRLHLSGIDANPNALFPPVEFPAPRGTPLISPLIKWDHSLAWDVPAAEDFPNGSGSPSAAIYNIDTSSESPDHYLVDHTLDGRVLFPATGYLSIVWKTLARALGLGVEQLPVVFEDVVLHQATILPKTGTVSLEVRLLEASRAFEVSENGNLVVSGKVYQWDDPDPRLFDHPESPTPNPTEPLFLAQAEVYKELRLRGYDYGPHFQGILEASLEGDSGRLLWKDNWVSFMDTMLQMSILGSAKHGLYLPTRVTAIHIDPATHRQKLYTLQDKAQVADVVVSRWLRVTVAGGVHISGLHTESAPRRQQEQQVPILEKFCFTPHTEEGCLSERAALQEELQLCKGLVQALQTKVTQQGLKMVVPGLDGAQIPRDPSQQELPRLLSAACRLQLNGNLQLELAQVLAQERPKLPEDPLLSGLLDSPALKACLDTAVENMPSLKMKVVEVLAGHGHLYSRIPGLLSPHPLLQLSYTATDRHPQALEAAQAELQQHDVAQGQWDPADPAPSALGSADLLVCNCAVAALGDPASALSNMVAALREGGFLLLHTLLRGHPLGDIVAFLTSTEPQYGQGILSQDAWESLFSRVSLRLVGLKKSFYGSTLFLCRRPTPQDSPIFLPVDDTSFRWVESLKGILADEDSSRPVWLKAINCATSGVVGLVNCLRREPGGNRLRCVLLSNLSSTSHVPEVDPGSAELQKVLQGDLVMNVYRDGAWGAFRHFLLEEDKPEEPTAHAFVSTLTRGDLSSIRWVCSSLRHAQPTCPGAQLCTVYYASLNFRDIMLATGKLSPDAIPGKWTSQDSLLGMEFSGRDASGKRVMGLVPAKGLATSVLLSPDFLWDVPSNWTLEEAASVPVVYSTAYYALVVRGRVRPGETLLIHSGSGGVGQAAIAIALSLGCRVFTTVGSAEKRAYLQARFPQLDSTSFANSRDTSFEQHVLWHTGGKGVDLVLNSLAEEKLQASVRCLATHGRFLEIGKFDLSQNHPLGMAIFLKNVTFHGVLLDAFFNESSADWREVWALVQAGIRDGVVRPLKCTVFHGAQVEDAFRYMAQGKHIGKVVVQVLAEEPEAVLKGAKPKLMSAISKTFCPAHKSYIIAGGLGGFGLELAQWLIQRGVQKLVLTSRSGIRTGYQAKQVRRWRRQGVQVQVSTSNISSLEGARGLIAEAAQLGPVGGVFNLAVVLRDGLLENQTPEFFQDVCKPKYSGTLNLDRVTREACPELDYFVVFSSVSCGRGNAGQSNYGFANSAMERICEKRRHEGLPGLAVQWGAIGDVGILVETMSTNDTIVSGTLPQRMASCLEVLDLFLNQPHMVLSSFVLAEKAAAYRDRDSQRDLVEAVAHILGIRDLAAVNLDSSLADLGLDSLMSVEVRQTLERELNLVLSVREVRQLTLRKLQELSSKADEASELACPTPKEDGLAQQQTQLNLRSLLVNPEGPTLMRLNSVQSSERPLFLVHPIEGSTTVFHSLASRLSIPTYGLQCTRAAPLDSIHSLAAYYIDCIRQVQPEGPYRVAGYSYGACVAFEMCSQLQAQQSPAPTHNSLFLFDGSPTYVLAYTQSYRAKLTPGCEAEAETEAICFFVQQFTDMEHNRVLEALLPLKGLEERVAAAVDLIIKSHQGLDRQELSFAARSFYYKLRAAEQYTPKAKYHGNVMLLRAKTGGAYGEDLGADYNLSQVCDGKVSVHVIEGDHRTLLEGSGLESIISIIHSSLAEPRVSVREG

[10] = molecular target: T1, Corticotropin-releasing factor receptor 2/Corticotropin-releasing factor-binding protein (Homo sapiens, UniProt P24387+Q13324); test: activators of CRF receptor 2 with binding protein – uHTS hits, confirmation (AID 602473); assay type: functional; conditions: read-out: EC50_Mean
T1 sequence (Q13324 whole entry): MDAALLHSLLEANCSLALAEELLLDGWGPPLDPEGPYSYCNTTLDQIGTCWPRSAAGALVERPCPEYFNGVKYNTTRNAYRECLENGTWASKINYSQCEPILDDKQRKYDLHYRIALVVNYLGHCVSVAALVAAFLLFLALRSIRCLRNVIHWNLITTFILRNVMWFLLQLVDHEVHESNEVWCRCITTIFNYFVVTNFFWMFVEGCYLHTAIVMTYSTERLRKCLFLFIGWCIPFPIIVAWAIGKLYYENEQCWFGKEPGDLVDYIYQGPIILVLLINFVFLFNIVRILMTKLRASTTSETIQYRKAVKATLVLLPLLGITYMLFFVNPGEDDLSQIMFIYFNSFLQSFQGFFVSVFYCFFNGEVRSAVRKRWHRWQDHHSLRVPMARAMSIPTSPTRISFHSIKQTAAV
T1 sequence (P24387 whole entry): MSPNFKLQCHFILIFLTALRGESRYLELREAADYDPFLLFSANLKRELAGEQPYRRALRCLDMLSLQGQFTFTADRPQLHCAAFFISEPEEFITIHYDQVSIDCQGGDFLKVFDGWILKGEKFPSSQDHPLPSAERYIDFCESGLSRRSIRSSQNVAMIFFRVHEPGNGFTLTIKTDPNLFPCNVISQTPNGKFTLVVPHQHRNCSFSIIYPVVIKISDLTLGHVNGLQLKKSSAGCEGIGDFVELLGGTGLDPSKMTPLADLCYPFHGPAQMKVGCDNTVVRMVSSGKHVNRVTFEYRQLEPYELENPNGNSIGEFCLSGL

[11] = molecular target: T1, Corticotropin-releasing factor receptor 2/Corticotropin-releasing factor-binding protein; test: Dose Response confirmation of uHTS hits for small molecule antagonists of the CRF-binding protein and CRF-R2 receptor complex.; assay type: functional; conditions: read-out: IC50_Mean
Cytochrome P450 3A4 = Cytochrome P450 3A4 (Homo sapiens, UniProt P08684);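 also: CYP3A4 tested as one member of a cytochrome P450 panel screen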
Cytochrome P450 3A4, sequence (P08684 whole entry): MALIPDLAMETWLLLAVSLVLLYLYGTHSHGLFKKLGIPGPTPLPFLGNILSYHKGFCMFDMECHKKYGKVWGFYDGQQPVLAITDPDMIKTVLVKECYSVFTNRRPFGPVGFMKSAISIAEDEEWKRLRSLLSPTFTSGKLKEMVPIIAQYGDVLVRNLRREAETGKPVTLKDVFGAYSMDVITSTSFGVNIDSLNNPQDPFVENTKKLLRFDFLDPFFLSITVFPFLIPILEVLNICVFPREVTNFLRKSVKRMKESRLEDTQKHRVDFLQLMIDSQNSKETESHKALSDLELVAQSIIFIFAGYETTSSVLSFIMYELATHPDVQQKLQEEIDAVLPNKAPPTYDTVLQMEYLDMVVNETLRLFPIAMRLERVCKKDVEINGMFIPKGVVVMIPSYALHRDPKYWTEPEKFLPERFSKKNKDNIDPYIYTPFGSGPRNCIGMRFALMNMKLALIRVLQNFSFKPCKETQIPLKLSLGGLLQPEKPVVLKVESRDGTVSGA

[12] = molecular target: FAD-linked sulfhydryl oxidase ALR (Homo sapiens, UniProt P55789); test: ALR-catalysed DTT oxidation blockers – biochemical, H2O2 detection, luminescence, cherry-pick, dose response (AID 493248)
FAD-linked sulfhydryl oxidase ALR, sequence (P55789 whole entry): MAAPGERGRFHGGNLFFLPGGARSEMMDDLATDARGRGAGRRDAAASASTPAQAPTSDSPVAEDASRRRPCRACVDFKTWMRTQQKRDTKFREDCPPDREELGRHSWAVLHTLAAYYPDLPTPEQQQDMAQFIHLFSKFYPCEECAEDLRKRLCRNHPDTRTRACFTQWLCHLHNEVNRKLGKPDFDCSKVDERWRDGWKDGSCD

IC50 [1]: 55.2 µM (inactive)
Structure (SMILES): O=C(CCSCCC(=O)NN=Cc1ccccc1)NN=Cc1ccccc1

Structure (SMILES): C[C@H](CO)N1C[C@H](C)[C@H](CN(C)Cc2ccc3c(c2)OCO3)Oc2ccc(NC(=O)NC3CCCCC3)cc2C1=O
AC50 [2]: 1.82 µM (active)

IC50 [3]: 4.37 µM (not active)
Structure (SMILES): CCN1C(=O)C(C)S/C1=N\S(=O)(=O)c1ccc(F)cc1 (stereo unspecified)

Structure (SMILES): CCCCCCn1c(SCC(=O)OC)nc2c1c(=O)[nH]c(=O)n2C
IC50 [4]: 51.6 µM (active)

Structure (SMILES): C=CCn1c(-c2cc(OC)cc(OC)c2)n[nH]c1=S
IC50 [4]: 8.23 µM (active)

Structure (SMILES): C[C@@H]1CN([C@@H](C)CO)C(=O)c2cccc(NC(=O)NC3CCCCC3)c2O[C@H]1CN(C)Cc1ccc(C(F)(F)F)cc1
AC50 [2]: 2.86 µM (active)

Structure (SMILES): Cc1ccc(NC(=S)N/N=C/c2c(Cl)cccc2Cl)c(C)c1
EC50 (BJ [5]): 3.99 µM (inconclusive)
EC50 [6]: 2.58 µM (active)
EC50 (BJ [7]): 3.48 µM (inconclusive)
AC50 [8]: 0.368 µM (active)
EC50 (BJ [9]): 2.66 µM (active)

Structure (SMILES): CSc1nc2ncc3c(n2n1)CC1c2ccccc2CCN1C3=O (stereo unspecified)
IC50 (H9c2): 15.1 µM (active)

Structure (SMILES): COc1cc(/C=C(\C#N)c2nc3cc(C)ccc3[nH]2)c([N+](=O)[O-])cc1OC
IC50 (H9c2): > 79 µM (inactive)

IC50 (Fatty acid synthase): 5.27 µM (active)
Structure (SMILES): COc1ccc(/C=C(\NC(=O)c2ccc([N+](=O)[O-])cc2)C(=O)NCCN2CCOCC2)cc1

Structure (SMILES): CNc1nnc(S)s1
IC50 [4]: 17.6 µM (active)

EC50 [10]: > 53 µM (inactive)
IC50 [11]: > 47.1 µM (inactive)
Structure (SMILES): COc1cc(OC)c2ccc(=O)oc2c1C(CCN1CCOCC1)c1ccc2c(c1)OCO2 (stereo unspecified)

Structure (SMILES): C[C@H]1CN([C@@H](C)CO)C(=O)c2cc(NC(=O)Nc3ccc4c(c3)OCO4)ccc2O[C@@H]1CN(C)Cc1ccc(Oc2ccccc2)cc1
AC50 [2]: 4.01 µM (active)

Structure (SMILES): O=C(COC(=O)CCc1nc(O)c2ccccc2n1)NCc1ccc(F)cc1
IC50 (H9c2): > 79 µM (inactive)

Structure (SMILES): COc1cc(NC(=O)c2cc([N+](=O)[O-])ccc2NC(=O)CN2CCN(c3ccccn3)CC2)cc(OC)c1
IC50 (H9c2): 10.8 µM (active)

Structure (SMILES): COc1ccc2sc(-c3ccc(SC)cc3)c(C#CC(C)(C)O)c2c1
AC50 [8]: 2.26 µM (active)

Structure (SMILES): Cc1ccc(S(=O)(=O)NNc2ccccc2)cc1
AC50 (Cytochrome P450 3A4): 28.2 µM (inconclusive)
IC50 [1]: > 80 µM (inactive)
AC50 [12]: 0.623 µM (active)

Structure (SMILES): CC(C)NC(=O)Nc1ccc2c(c1)CC(=O)N([C@H](C)CO)C[C@H](C)[C@H](CN(C)Cc1ccc(C(=O)Nc3ccccc3N)cc1)O2
AC50 [2]: 4 µM (active)

Structure (SMILES): CCC(CC)c1nnc(NC(=O)COc2ccc3c(c2)OCO3)s1
IC50 [4]: 53.2 µM (active)
